Test: xn = mol fraction of the nth substance listed
Conditions: Liquid

COCCOCCOCCOC [2,5,8,11-tetraoxadodecane] + O
Conditions	mass density, 101.3 kPa [kg/m3]	viscosity, 101 kPa [mPa·s]
303.15 K, x1 = 0.0198	1004.97	1.38
303.15 K, x1 = 0.05	1015.35	2.38
303.15 K, x1 = 0.07	1019.1	2.99
303.15 K, x1 = 0.1	1020.68	3.6
303.15 K, x1 = 0.2	1012.62	3.76
303.15 K, x1 = 0.3	1002.98	3.13
303.15 K, x1 = 0.4	995.48	2.67
303.15 K, x1 = 0.5	990.09	2.38
303.15 K, x1 = 0.6	985.94	2.14
303.15 K, x1 = 0.7	982.66	1.99
303.15 K, x1 = 0.8	979.8	1.9
303.15 K, x1 = 0.9	977.61	1.82
303.15 K, x1 = 1	975.86	1.77
313.15 K, x1 = 0.0198	1000.31	1.09
313.15 K, x1 = 0.05	1008.77	1.79
313.15 K, x1 = 0.07	1011.54	2.19
313.15 K, x1 = 0.1	1012.19	2.6
313.15 K, x1 = 0.2	1003.21	2.8
313.15 K, x1 = 0.3	993.51	2.39
313.15 K, x1 = 0.4	985.98	2.09
313.15 K, x1 = 0.5	980.57	1.94
313.15 K, x1 = 0.6	976.37	1.73
313.15 K, x1 = 0.7	973.09	1.65
313.15 K, x1 = 0.8	970.25	1.58
313.15 K, x1 = 0.9	968.06	1.51
313.15 K, x1 = 1	966.36	1.48
323.15 K, x1 = 0.0198	995.02	0.876
323.15 K, x1 = 0.05	1001.79	1.39
323.15 K, x1 = 0.07	1003.67	1.67
323.15 K, x1 = 0.1	1003.47	1.96
323.15 K, x1 = 0.2	993.71	2.1
323.15 K, x1 = 0.3	983.93	1.88
323.15 K, x1 = 0.4	976.37	1.69
323.15 K, x1 = 0.5	970.93	1.6
323.15 K, x1 = 0.6	966.77	1.44
323.15 K, x1 = 0.7	963.5	1.37
323.15 K, x1 = 0.8	960.68	1.32
323.15 K, x1 = 0.9	958.5	1.27
323.15 K, x1 = 1	956.85	1.26
333.15 K, x1 = 0.0198	989.18	0.728
333.15 K, x1 = 0.05	994.39	–
333.15 K, x1 = 0.07	995.46	1.33
333.15 K, x1 = 0.1	994.52	1.53
333.15 K, x1 = 0.2	984.05	1.66
333.15 K, x1 = 0.3	974.23	1.52
333.15 K, x1 = 0.4	966.69	1.4
333.15 K, x1 = 0.5	961.2	1.3
333.15 K, x1 = 0.6	957.06	1.21
333.15 K, x1 = 0.7	953.78	1.16
333.15 K, x1 = 0.8	950.98	1.13
333.15 K, x1 = 0.9	948.9	1.1
333.15 K, x1 = 1	947.32	1.08
343.15 K, x1 = 0.0198	982.78	0.617
343.15 K, x1 = 0.05	986.6	0.922
343.15 K, x1 = 0.07	986.96	1.08
343.15 K, x1 = 0.1	985.33	1.24
343.15 K, x1 = 0.2	974.27	1.34
343.15 K, x1 = 0.3	964.41	1.26
343.15 K, x1 = 0.4	956.86	1.17
343.15 K, x1 = 0.5	951.36	1.1
343.15 K, x1 = 0.6	947.25	1.04
343.15 K, x1 = 0.7	943.99	0.998
343.15 K, x1 = 0.8	941.33	0.976
343.15 K, x1 = 0.9	939.3	0.952
343.15 K, x1 = 1	937.72	0.945

CC(=O)N1CCOCC1 [4-acetylmorpholine] + O
101 kPa
Conditions	mass density [kg/m3]	viscosity [mPa·s]
298.15 K, x1 = 0.05	1034.97	1.79
298.15 K, x1 = 0.07	1046.13	2.22
298.15 K, x1 = 0.1	1060.06	3.22
298.15 K, x1 = 0.2	1087.71	5.96
298.15 K, x1 = 0.3	1100.16	8.7
298.15 K, x1 = 0.4	1106	10.1
298.15 K, x1 = 0.5	1108.55	10.4
298.15 K, x1 = 0.6	1109.77	10.5
298.15 K, x1 = 0.7	1110.29	9.61
298.15 K, x1 = 0.8	1110.46	9.18
298.15 K, x1 = 0.9	1110.4	8.79
298.15 K, x1 = 1	1110.33	8.48
303.15 K, x1 = 0.05	1032.47	1.56
303.15 K, x1 = 0.07	1043.32	1.96
303.15 K, x1 = 0.1	1056.85	2.75
303.15 K, x1 = 0.2	1083.85	4.94
303.15 K, x1 = 0.3	1095.95	7.01
303.15 K, x1 = 0.4	1101.68	8.02
303.15 K, x1 = 0.5	1104.19	8.29
303.15 K, x1 = 0.6	1105.39	8.48
303.15 K, x1 = 0.7	1105.93	7.89
303.15 K, x1 = 0.8	1106.12	7.56
303.15 K, x1 = 0.9	1106.08	7.3
303.15 K, x1 = 1	1106	7.1
313.15 K, x1 = 0.05	1027.12	1.23
313.15 K, x1 = 0.07	1037.36	1.52
313.15 K, x1 = 0.1	1050.17	2.1
313.15 K, x1 = 0.2	1075.73	3.55
313.15 K, x1 = 0.3	1087.43	4.8
313.15 K, x1 = 0.4	1092.98	5.47
313.15 K, x1 = 0.5	1095.41	5.68
313.15 K, x1 = 0.6	1096.65	5.77
313.15 K, x1 = 0.7	1097.23	5.56
313.15 K, x1 = 0.8	1097.4	5.42
313.15 K, x1 = 0.9	1097.41	5.28
313.15 K, x1 = 1	1097.35	5.18
323.15 K, x1 = 0.05	1021.29	0.998
323.15 K, x1 = 0.07	1031.03	1.21
323.15 K, x1 = 0.1	1043.19	1.65
323.15 K, x1 = 0.2	1067.57	2.68
323.15 K, x1 = 0.3	1078.79	3.51
323.15 K, x1 = 0.4	1084.2	3.96
323.15 K, x1 = 0.5	1086.6	4.13
323.15 K, x1 = 0.6	1087.84	4.4
323.15 K, x1 = 0.7	1088.43	4.13
323.15 K, x1 = 0.8	1088.71	4.06
323.15 K, x1 = 0.9	1088.78	4
323.15 K, x1 = 1	1088.74	3.96
333.15 K, x1 = 0.05	1015.01	0.857
333.15 K, x1 = 0.07	1024.27	1.04
333.15 K, x1 = 0.1	1035.89	1.24
333.15 K, x1 = 0.2	1059.2	2.05
333.15 K, x1 = 0.3	1069.99	2.66
333.15 K, x1 = 0.4	1075.32	3
333.15 K, x1 = 0.5	1077.66	3.13
333.15 K, x1 = 0.6	1078.93	3.41
333.15 K, x1 = 0.7	1079.63	3.18
333.15 K, x1 = 0.8	1079.97	3.17
333.15 K, x1 = 0.9	1080.1	3.14
333.15 K, x1 = 1	1080.14	3.12
343.15 K, x1 = 0.05	1008.29	0.743
343.15 K, x1 = 0.07	1017.17	0.861
343.15 K, x1 = 0.1	1028.29	1.03
343.15 K, x1 = 0.2	1050.63	1.66
343.15 K, x1 = 0.3	1061.11	2.09
343.15 K, x1 = 0.4	1066.32	2.34
343.15 K, x1 = 0.5	1068.66	2.46
343.15 K, x1 = 0.6	1070	2.59
343.15 K, x1 = 0.7	1070.82	2.54
343.15 K, x1 = 0.8	1071.21	2.53
343.15 K, x1 = 0.9	1071.43	2.54
343.15 K, x1 = 1	1071.55	2.55
